Reference: patent publication US20220280594A1, “APPLICATION OF POLYPEPTIDE OR DERIVATIVE THEREOF” (CHENGDU HUITAI BIOMEDICINE CO., LTD., priority 2019, published 2022)
Ends that are not written are not given here. PEG = not defined here

Legend:
[1] = tested on: human pancreatic cancer cells (PANC-1); experiment: transwell invasion assay, PANC-1 cells; type: cell-based; settings: PANC-1 transwell invasion, 10 μM, 24 hours; control group 727 ± 68
From the text: (§1) The Transwell chamber system was used in the transwell cell invasion experiment. The chamber has an upper layer and a lower layer, which are separated by an artificial semipermeable membrane in the middle. The upper surface of the semipermeable membrane is coated with a layer of artificial matrigel to simulate extracellular matrix. Cells that have invaded through the matrigel and semi-permeable membrane will attach to the lower surface of the semi-permeable membrane. The invasion ability is evaluated by counting the number of cells on the lower surface of the semi-permeable membrane. The number of cells that have invaded is negatively correlated with the inhibitory effect of the drug on the invasion ability of the tumor cells. Transwell invasion assay was performed as follows: tumor cells were cultured in vitro, cells in logarithmic growth phase were collected, and cell suspension was prepared with fresh serum-free medium at a density of 2-3×10^5 cells/mL. Cells were inoculated, 100 μL/well cell suspension (serum-free medium) in the upper chamber and 600 μL/well complete culture medium in the lower chamber. After incubated in 37° C., 5% CO2 incubator for 4-5 hours, serum-free medium (100 μL/well) was added to the control group, and serum-free medium containing polypeptide or derivative thereof (N1-N54) was added to the upper chamber of the treatment group (100 μL/well), the final concentration of the peptide or derivative thereof in the upper chamber was 10 μM. The cells were incubated continuously for 24 hours, and then fixed with methanol and stained with crystal violet. Images were taken under a microscope and the number of invaded cells was counted with ImageJ.
This example was the transwell cell invasion experiment to evaluate the inhibitory effect of the polypeptide or derivative thereof (N1-N54) on the invasion ability of human pancreatic cancer cells (PANC-1). The experimental method was as described in Example 4.

[2] = tested on: human liver adenocarcinoma cells (SK-HEP-1); experiment: transwell invasion assay, SK-HEP-1 cells; type: cell-based; settings: SK-HEP-1 transwell invasion, 10 μM, 24 hours; control group 767 ± 91
From the text: as §1
This example was a transwell cell invasion experiment to evaluate the inhibitory effect of the polypeptide or derivative thereof (N1-N54) on the invasion ability of human liver adenocarcinoma cells (SK-HEP-1). The experimental method was as described in Example 4.

[3] = tested on: human lung cancer cells (A549) subcutaneous xenograft; experiment: lung cancer subcutaneous xenograft animal model, intravenous injection; type: in vivo, mice (BALB/c-nu/nu); settings: intravenous 60 mg/kg once every other day, 20 days; for Weight of tumor (g) (mean ± SD): control 2.53 ± 0.17; for Volume of tumor (mm^3) (mean ± SD): control 3373.26 ± 581.44
Procedure: Experimental animals: 4-6 weeks old female immunodeficiency mice (BALB/c-nu/nu, Beijing Vital River Laboratory Animal Technology Co., Ltd.).
Subcutaneous xenograft animal model. The number of cells inoculated subcutaneously vin mice was about 2×10^6/200 μL. When the volume of the subcutaneous tumor was greater than 100 mm^3, the mice were randomly divided into groups and subjected to treatment. When the mass volume of the tumors in model control group reached 2000 mm^3 or the animal dies, the treatment ended. The animals were dissected, the tumors were taken out, and the weight and volume of the tumors were measured. During the period of the entire experiment, the mice were observed and the body weight was measured every other day.
The method used in the efficacy test on the lung cancer subcutaneous xenograft animal model was as described in Example 5. The lung cancer cells were the human lung cancer cells (A549), and the route of administration was intravenous injection. This example involved a total of 3 experiments to evaluate N1-N15, N16-N30, and N31-N54 respectively. The experimental procedure, route of administration, dosage and frequency of administration, and detection method were all consistent in the three experiments. The experimental groups were model control group and polypeptide or derivative thereof treatment groups (N1-N15, N16-N30, or N31-N54). The drug dosage of the N1-N54 treatment groups was 60 mg/kg, and the treatment time was 20 days.

[4] = tested on: human liver adenocarcinoma cells (SK-HEP-1); experiment: transwell migration assay, SK-HEP-1 cells; type: cell-based; settings: SK-HEP-1 transwell migration, 10 μM, 24 hours; control group 1 782 ± 108, control group 2 768 ± 86
Procedure: as §1, with “migration” for “invasion”, “middle.” for “middle. The upper surface of the semipermeable membrane is coated with a layer of artificial matrigel to simulate extracellular matrix.”, “migrated” for “invaded”, “the” for “the matrigel and”
This example was a transwell cell migration experiment to evaluate the inhibitory effect of the polypeptide or derivative thereof (N1-N54) on the migration ability of human liver adenocarcinoma cells (SK-HEP-1). The experimental method was as described in Example 3.

[5] = tested on: human pancreatic cancer cells (PANC-1); experiment: transwell migration assay, PANC-1 cells; type: cell-based; settings: PANC-1 transwell migration, 10 μM, 24 hours; control group 360 ± 60
Procedure: as §1, with “migration” for “invasion”, “middle.” for “middle. The upper surface of the semipermeable membrane is coated with a layer of artificial matrigel to simulate extracellular matrix.”, “migrated” for “invaded”, “the” for “the matrigel and”
This example was a transwell cell migration experiment to evaluate the inhibitory effect of the polypeptide or derivative thereof (N1-N54) on the migration ability of human pancreatic cancer cells (PANC-1). The experimental method was as described in Example 3.

Row | Substance | Number of cells (mean ± SD, P), invaded cells [1] | Number of cells (mean ± SD, P), invaded cells [2] | Weight of tumor (g) (mean ± SD) [3] | Volume of tumor (mm^3) (mean ± SD) [3] | Number of cells (mean ± SD, P), migrated cells [4] | Number of cells (mean ± SD, P), migrated cells [5]
1 | N43: SEQ ID NO: 1 with addition of one amino acid at the amino terminal, deletion of position 18, PEG at the carboxyl terminal (RYRVRFLAKENVTQDAED-{PEG}; reading uncertain) | 251 ± 10,**** | 107 ± 16,**** | 0.85 ± 0.14 | 1218.7 ± 190.78 | 157 ± 29,**** | 157 ± 15,***
2 | N9: SEQ ID NO: 1 with deletion of positions 15-18 and PEG modification at the amino terminal ({PEG}-YRVRFLAKENVTQD; reading uncertain) | 93 ± 6,**** | 288 ± 35,*** | 0.82 ± 0.29 | 1241.9 ± 388.92 | 174 ± 15,**** | 148 ± 16,***
3 | N53: SEQ ID NO: 1 with A15R, one amino acid added at each terminal, PEG modification at the carboxyl terminal (FYRVRFLAKENVTQDREDNC-{PEG}; reading uncertain) | 228 ± 25,**** | 143 ± 19,**** | 0.75 ± 0.27 | 1549.08 ± 539.99 | 265 ± 32,**** | 131 ± 8,***
4 | N16: SEQ ID NO: 1 with substitution A7R and addition of one amino acid at the carboxyl terminus (YRVRFLRKENVTQDAEDNC) | 128 ± 25,**** | 398 ± 43,*** | 1.05 ± 0.26 | 1442.4 ± 293.63 | 74 ± 18,**** | 230 ± 28,*
5 | N48: SEQ ID NO: 1 with A7R, deletion of position 11 and position 18, PEG modification at the carboxyl terminal (YRVRFLRKENTQDAED-{PEG}; reading uncertain) | 149 ± 12,**** | 109 ± 10,**** | 0.71 ± 0.37 | 1558.12 ± 436.42 | 374 ± 22,*** | 152 ± 18,***
6 | N51: SEQ ID NO: 1 with A15R, one amino acid added at each terminal, PEG modification at the amino terminal ({PEG}-FYRVRFLAKENVTQDREDNC; reading uncertain) | 282 ± 28,**** | 248 ± 39,**** | 0.75 ± 0.37 | 1412.56 ± 599.92 | 306 ± 46,*** | 214 ± 17,***
7 | N11: SEQ ID NO: 1 with deletion of positions 15-18 and 1-3 and PEG modification at the amino terminal ({PEG}-RFLAKENVTQD; reading uncertain) | 66 ± 14,**** | 398 ± 36,*** | 1.3 ± 0.23 | 1419.28 ± 615.42 | 80 ± 6,**** | 239 ± 26,*
8 | N45: SEQ ID NO: 1 with V11R, deletion of positions 1-5 and 15-18, PEG modification at the carboxyl terminal (LAKENRTQD-{PEG}; reading uncertain) | 358 ± 23,*** | 155 ± 10,**** | 0.97 ± 0.28 | 1204.87 ± 212.94 | 162 ± 15,**** | 135 ± 10,***
9 | N52: SEQ ID NO: 1 with N18R, addition of two amino acids and PEG modification at the carboxyl terminal (YRVRFLAKENVTQDAEDRCT-{PEG}; reading uncertain) | 237 ± 27,**** | 132 ± 29,**** | 0.7 ± 0.2 | 1425.2 ± 555.76 | 318 ± 37,*** | 153 ± 16,***
10 | N10: SEQ ID NO: 1 with deletion of positions 15-18 and 1-3 and PEG modification at the carboxyl terminal (RFLAKENVTQD-{PEG}; reading uncertain) | 159 ± 12,**** | 460 ± 43,** | 0.86 ± 0.17 | 1211.62 ± 670.09 | 54 ± 5,**** | 254 ± 20,*
11 | N5: SEQ ID NO: 1 with addition of one amino acid at the carboxyl terminal and deletion of positions 1-3 (RFLAKENVTQDAEDNC) | 109 ± 7,**** | 353 ± 52,*** | 0.71 ± 0.12 | 1353.09 ± 422.65 | 167 ± 12,**** | 234 ± 27,*
12 | N7: SEQ ID NO: 1 with addition of one amino acid at the carboxyl terminal and substitution A15R (YRVRFLAKENVTQDREDNC) | 70 ± 17,**** | 463 ± 52,** | 0.81 ± 0.15 | 1189.39 ± 200.83 | 127 ± 16,**** | 132 ± 15,***
